Experimental data taken from ChEMBL document CHEMBL5625191, “A review of progress in o-aminobenzamide-based HDAC inhibitors with dual targeting capabilities for cancer therapy” (Eur J Med Chem, 2023).
One block for each molecule: values may come before it.

Key:
[1] = system: A549; assay: Antiproliferative activity against human A549 cells assessed as inhibition of cell growth incubated for 48 hrs by CCK-8 assay; assay type: functional, cell-based; details: A549, 48 h
[2] = system: CT26; assay: Antitumor activity against mouse CT26 cells xenografted in mouse assessed as reduction in tumor volume; assay type: functional; parameters: scale not given: the % may be the effect or the level left
[3] = system: U-937; assay: Cytotoxicity against human U-937 cells assessed as inhibition of cell growth; assay type: functional, cell-based
[4] = molecular target: Protein deacetylase HDAC6 (Homo sapiens, UniProt Q9UBN7); assay: Inhibition of HDAC6 (unknown origin)
Protein deacetylase HDAC6, sequence (Q9UBN7 whole entry): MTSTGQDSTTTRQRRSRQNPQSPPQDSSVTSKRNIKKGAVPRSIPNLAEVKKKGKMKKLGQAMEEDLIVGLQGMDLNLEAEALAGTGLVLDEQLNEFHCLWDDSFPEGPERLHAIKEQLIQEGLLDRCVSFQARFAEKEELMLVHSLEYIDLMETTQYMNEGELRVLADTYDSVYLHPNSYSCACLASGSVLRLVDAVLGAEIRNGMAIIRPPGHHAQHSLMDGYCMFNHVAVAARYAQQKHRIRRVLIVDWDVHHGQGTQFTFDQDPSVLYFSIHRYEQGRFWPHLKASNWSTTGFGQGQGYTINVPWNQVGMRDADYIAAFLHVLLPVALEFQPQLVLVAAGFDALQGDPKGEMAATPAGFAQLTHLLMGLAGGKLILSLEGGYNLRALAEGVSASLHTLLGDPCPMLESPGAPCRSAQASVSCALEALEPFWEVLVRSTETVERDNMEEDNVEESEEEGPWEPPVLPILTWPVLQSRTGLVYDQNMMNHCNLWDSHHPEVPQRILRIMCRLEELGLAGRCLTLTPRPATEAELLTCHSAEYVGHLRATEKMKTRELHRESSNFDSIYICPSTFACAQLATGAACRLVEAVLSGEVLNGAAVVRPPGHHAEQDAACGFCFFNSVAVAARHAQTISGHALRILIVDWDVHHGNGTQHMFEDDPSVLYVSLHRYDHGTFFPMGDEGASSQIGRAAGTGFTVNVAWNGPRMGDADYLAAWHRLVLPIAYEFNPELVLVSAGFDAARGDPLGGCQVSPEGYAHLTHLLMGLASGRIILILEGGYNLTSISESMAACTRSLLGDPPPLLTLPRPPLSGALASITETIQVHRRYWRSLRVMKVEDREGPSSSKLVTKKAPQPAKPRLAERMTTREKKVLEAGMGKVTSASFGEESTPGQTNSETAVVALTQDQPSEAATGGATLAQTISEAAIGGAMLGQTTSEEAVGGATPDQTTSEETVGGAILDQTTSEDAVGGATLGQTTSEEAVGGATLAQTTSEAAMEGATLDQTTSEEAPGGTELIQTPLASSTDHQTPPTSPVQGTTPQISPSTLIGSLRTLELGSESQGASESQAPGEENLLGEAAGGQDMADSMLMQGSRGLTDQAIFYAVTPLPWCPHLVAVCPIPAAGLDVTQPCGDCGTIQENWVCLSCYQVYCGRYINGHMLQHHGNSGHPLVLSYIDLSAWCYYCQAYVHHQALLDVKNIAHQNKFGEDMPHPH

[5] = system: MCF7; assay: Cytotoxicity against human MCF7 cells assessed as inhibition of cell growth; assay type: functional, cell-based
[6] = system: MGC-803; assay: Cytotoxicity against human MGC-803 cells assessed as inhibition of cell growth; assay type: functional, cell-based
[7] = system: HeLa; assay: Cytotoxicity against human HeLa cells assessed as inhibition of cell growth; assay type: functional, cell-based
[8] = system: HepG2; assay: Cytotoxicity against human HepG2 cells assessed as inhibition of cell growth; assay type: functional, cell-based
[9] = molecular target: T1, Histone deacetylase 2 (Homo sapiens, UniProt Q92769); assay: Inhibition of HDAC2 (unknown origin)
T1 sequence (Q92769 whole entry, the tested form may be a part): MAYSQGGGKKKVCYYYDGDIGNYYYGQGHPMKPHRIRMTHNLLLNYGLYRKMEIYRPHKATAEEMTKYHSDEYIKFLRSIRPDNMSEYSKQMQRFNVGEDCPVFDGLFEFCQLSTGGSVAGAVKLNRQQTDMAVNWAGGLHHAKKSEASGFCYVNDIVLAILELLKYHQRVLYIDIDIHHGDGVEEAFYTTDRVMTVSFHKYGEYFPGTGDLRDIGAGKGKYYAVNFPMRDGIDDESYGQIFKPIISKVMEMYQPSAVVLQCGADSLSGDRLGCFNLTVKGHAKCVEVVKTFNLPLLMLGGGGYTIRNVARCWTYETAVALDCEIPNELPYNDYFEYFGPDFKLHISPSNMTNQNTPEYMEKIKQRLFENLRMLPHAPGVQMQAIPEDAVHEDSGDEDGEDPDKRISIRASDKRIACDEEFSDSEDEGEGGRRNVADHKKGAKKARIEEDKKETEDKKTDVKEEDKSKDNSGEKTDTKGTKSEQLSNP

[10] = molecular target: T2, Histone deacetylase 3 (Homo sapiens, UniProt O15379); assay: Inhibition of C-terminl his-tagged human recombinant HDAC3 (1 to 428 residues) expressed in Sf9 cells using fluorogenic Boc-Lys(Ac)-AMC as substrate incubated for 90 mins by Synergy H1 plate reader analysis
T2 sequence (O15379 whole entry, the tested form may be a part): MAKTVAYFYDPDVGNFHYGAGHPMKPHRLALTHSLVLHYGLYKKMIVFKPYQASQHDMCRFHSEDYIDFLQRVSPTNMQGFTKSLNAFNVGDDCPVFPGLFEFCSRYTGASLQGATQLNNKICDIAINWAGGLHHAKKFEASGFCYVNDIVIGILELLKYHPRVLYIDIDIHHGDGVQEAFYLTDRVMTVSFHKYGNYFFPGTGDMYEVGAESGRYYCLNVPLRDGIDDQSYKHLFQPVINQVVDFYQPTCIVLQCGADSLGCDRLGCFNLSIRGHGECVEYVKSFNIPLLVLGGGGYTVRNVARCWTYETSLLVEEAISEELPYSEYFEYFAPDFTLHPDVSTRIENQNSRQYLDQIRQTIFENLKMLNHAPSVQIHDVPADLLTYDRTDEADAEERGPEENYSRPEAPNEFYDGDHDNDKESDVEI

[11] = molecular target: Macrophage migration inhibitory factor (Homo sapiens, UniProt P14174); assay: Inhibition of MIF (unknown origin) tautomerase activity incubated for 10 mins by microplate reader analysis
Macrophage migration inhibitory factor, sequence (P14174 whole entry, the tested form may be a part): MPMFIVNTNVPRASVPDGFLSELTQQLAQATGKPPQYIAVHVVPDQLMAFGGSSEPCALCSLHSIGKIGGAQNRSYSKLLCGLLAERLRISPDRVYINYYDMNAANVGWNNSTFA

[12] = molecular target: T1, Histone deacetylase 2; assay: Inhibition of full length C-terminal FLAG-tagged human recombinant HDAC2 (1 to 488 residues) expressed in Sf9 cells using fluorogenic Boc-Lys(Ac)-AMC as substrate incubated for 90 mins by Synergy H1 plate reader analysis
[13] = molecular target: T3, Histone deacetylase 1 (Homo sapiens, UniProt Q13547); assay: Inhibition of full length C-terminal his6-tagged human recombinant HDAC1 (1 to 482 residues) expressed in Sf9 cells using fluorogenic Boc-Lys(Ac)-AMC as substrate incubated for 90 mins by Synergy H1 plate reader analysis
T3 sequence (Q13547 whole entry, the tested form may be a part): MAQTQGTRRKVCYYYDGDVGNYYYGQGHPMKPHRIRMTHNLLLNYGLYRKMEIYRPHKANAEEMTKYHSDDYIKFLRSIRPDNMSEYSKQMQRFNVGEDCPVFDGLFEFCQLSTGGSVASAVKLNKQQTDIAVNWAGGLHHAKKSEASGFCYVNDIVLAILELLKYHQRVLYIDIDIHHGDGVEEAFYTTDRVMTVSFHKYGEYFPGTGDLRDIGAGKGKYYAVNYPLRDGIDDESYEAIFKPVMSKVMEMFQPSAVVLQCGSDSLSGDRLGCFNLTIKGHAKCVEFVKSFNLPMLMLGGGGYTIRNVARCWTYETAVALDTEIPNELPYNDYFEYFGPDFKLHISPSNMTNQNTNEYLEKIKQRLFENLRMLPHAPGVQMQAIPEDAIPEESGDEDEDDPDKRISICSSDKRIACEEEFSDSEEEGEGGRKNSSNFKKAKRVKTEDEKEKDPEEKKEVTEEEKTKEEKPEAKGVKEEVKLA

[14] = molecular target: Histone deacetylase; assay: Inhibition of HDAC (unknown origin); assay type: protein assay, Homo sapiens
[15] = system: K562; assay: Antiproliferative activity against human K562 cells assessed as inhibition of cell growth by MTT assay; assay type: functional, cell-based
[16] = molecular target: Bromodomain-containing protein 4 (Homo sapiens, UniProt O60885); assay: Inhibition of BRD4 BD1 (unknown origin)
[17] = molecular target: Histone deacetylase (Homo sapiens) (UniProt Q13547+O15379+Q9UBN7+Q92769+Q9UQL6+Q8WUI4+Q9BY41+Q96DB2+P56524+Q9UKV0+Q969S8); assay: Inhibition of HDAC in human RPMI-8226 cells at 10 uM incubated for 8 hrs relative to control; assay type: cell-based
[18] = Antiproliferative activity against human Bortezomib-resistant RPMI-8226 cells assessed as inhibition of cell growth incubated for 72 hrs by XTT assay; assay type: functional, cell-based; details: Bortezomib-resistant RPMI-8226, 72 h
[19] = system: RPMI-8226; assay: Antiproliferative activity against human RPMI-8226 cells assessed as inhibition of cell growth incubated for 72 hrs by XTT assay; assay type: functional, cell-based; details: RPMI-8226, 72 h
[20] = system: NCI-H2228; assay: Antiproliferative activity against human NCI-H2228 cells assessed as inhibition of cell growth incubated for 72 hrs by CCK-8 assay; assay type: functional, cell-based; details: NCI-H2228, 72 h
[21] = system: HepG2; assay: Antiproliferative activity against human HepG2 cells assessed as inhibition of cell growth incubated for 72 hrs by CCK-8 assay; assay type: functional, cell-based; details: HepG2, 72 h
[22] = system: A549; assay: Antiproliferative activity against human A549 cells assessed as inhibition of cell growth incubated for 72 hrs by CCK-8 assay; assay type: functional, cell-based; details: A549, 72 h
[23] = system: SK-N-BE(2); assay: Antiproliferative activity against human SK-N-BE(2) cells assessed as inhibition of cell growth incubated for 72 hrs by CCK-8 assay; assay type: functional, cell-based; details: SKNBE2, 72 h
[24] = system: A549; assay: Antiproliferative activity against human A549 cells assessed as inhibition of cell growth incubated for 48 hrs by MTT assay; assay type: functional, cell-based; details: A549, 48 h
[25] = molecular target: T3, Histone deacetylase 1; assay: Inhibition of HDAC1 in human HeLa nuclear extract using Boc-Lys(Ac)-AMC or Boc-Lys(Tfa)-AMC as substrate preincubated for 5 mins followed by substrate addition and measured after 30 mins by fluorescence assay; assay type: cell-free
[26] = system: Jurkat; assay: Antiproliferative activity against human Jurkat cells assessed as inhibition of cell growth incubated for 48 hrs by MTT assay; assay type: functional, cell-based
[27] = system: HCT-116; assay: Antitumor activity against human HCT-116 cells xenografted in BALB/c nude mouse assessed as tumor growth inhibition at 30 mg/kg, po administered for 3 days; assay type: functional; details: HCT-116, 72 h, time 3 day, read-out: TGI
[28] = system: HCT-116; assay: Antiproliferative activity against human HCT-116 cells assessed as inhibition of cell growth incubated for 48 hrs by MTT assay; assay type: functional, cell-based; details: HCT-116, 48 h
[29] = system: HEL; assay: Antiproliferative activity against human HEL cells assessed as inhibition of cell growth incubated for 48 hrs by MTT assay; assay type: functional, cell-based
[30] = molecular target: T2, Histone deacetylase 3; assay: Inhibition of HDAC3 in human HeLa nuclear extract using Boc-Lys(Ac)-AMC or Boc-Lys(Tfa)-AMC as substrate preincubated for 5 mins followed by substrate addition and measured after 30 mins by fluorescence assay; assay type: cell-free
[31] = molecular target: T1, Histone deacetylase 2; assay: Inhibition of HDAC2 in human HeLa nuclear extract using Boc-Lys(Ac)-AMC or Boc-Lys(Tfa)-AMC as substrate preincubated for 5 mins followed by substrate addition and measured after 30 mins by fluorescence assay; assay type: cell-free
[32] = system: HCT-116; assay: Antitumor activity against human HCT-116 cells xenografted in BALB/c nude mouse assessed as increase in increment ratio at 30 mg/kg, po administered for 3 days; assay type: functional; details: time 3 day
[33] = system: PC-3; assay: Antiproliferative activity against human PC-3 cells assessed as inhibition of cell growth incubated for 48 hrs by MTT assay; assay type: functional, cell-based; details: PC-3, 48 h
[34] = system: HeLa; assay: Antiproliferative activity against human HeLa cells assessed as inhibition of cell growth incubated for 48 hrs by MTT assay; assay type: functional, cell-based
[35] = system: MOLT-4; assay: Antiproliferative activity against human MOLT-4 cells assessed as inhibition of cell growth incubated for 48 hrs by MTT assay; assay type: functional, cell-based; details: MOLT-4, 48 h
[36] = molecular target: T3, Histone deacetylase 1; assay: Inhibition of HDAC1 (unknown origin)
[37] = system: HCT-116; assay: Antiproliferative activity against human HCT-116 cells assessed as inhibition of cell growth; assay type: functional, cell-based

SMILES: Cn1cc(-c2ccc(S(=O)(=O)n3ccc(/C=C/C(=O)Nc4ccccc4N)c3)cc2)cn1 [DOMATINOSTAT]
IC50 [1]: 7.8 nM
Activity [2]: 53%

SMILES: COc1cc2c(cc1OCc1ccc(C(=O)Nc3ccccc3N)cc1)CC[C@@H]1[C@H]3CC[C@@H](O)[C@]3(C)CC[C@@H]21
IC50 [3]: 371 nM
IC50 [4]: 120 nM
IC50 [5]: 370 nM
IC50 [6]: 370 nM
IC50 [7]: 370 nM
IC50 [8]: 370 nM
IC50 [9]: 60 nM

SMILES: CCN1CCN(c2cc(Nc3ncc(C(=O)Nc4ccc(F)cc4N)s3)ncn2)CC1
IC50 [14]: 810 nM
IC50 [15]: 2620 nM

SMILES: Cc1sc2c(c1C)C(c1ccc(Cl)cc1)=N[C@@H](CC(=O)Nc1ccc(C(=O)Nc3ccccc3N)cc1)c1nnc(C)n1-2
IC50 [16]: 729 nM

SMILES: CC(C)C[C@@H](NC(=O)[C@H](Cc1ccccc1)NC(=O)c1ccc(C(=O)Nc2ccccc2N)cc1)B1OC2CC3CC(C3(C)C)[C@@]2(C)O1 (stereo partly specified)
inhibition [17]: 33%
IC50 [18]: 112 nM
IC50 [19]: 37.1 nM

SMILES: Nc1ccccc1NC(=O)CCCCOc1no[n+]([O-])c1S(=O)(=O)c1ccccc1
IC50 [24]: 1030 nM
IC50 [25]: 620 nM
IC50 [26]: 540 nM
inhibition in vivo at 30 mg/kg [27]: 36%
IC50 [28]: 930 nM
IC50 [29]: 320 nM
IC50 [30]: 620 nM
IC50 [31]: 1460 nM
T/C [32]: 57%
IC50 [33]: 2690 nM
IC50 [34]: 1230 nM
IC50 [35]: 590 nM

Further lines, results first:

IC50 [10]: 600 nM
IC50 [11]: 180 nM
IC50 [12]: 1100 nM
IC50 [13]: 200 nM
SMILES: Nc1ccccc1NC(=O)c1ccc(NC(=O)Cc2ccc(N3Cc4ccc(O)cc4OC3=O)cc2)cc1

IC50 [20]: 110 nM
IC50 [21]: 10 nM
IC50 [22]: 2 nM
IC50 [23]: 3 nM
SMILES: CC(C)S(=O)(=O)c1ccccc1Nc1nc(Nc2ccc(C(=O)Nc3ccccc3N)cc2)ncc1Cl

IC50 [36]: 2660 nM
IC50 [37]: 7820 nM
IC50 [9]: 9370 nM
SMILES: COc1ccc2[nH]c3c(c2c1)CCN1C(=O)c2cc(NCc4ccc(C(=O)Nc5ccccc5N)cc4)ccc2N(C)[C@H]31

IC50 [36]: 400 nM
IC50 [37]: 2150 nM
IC50 [9]: 2140 nM
SMILES: CN1c2ccc(NCc3ccc(C(=O)Nc4ccccc4N)cc3)cc2C(=O)N2CCc3c([nH]c4ccc(O)cc34)[C@H]21
